The values below come from US20100173987A1, “ACTIVE AGENT COMBINATIONS WITH INSECTICIDAL AND ACARICIDAL PROPERTIES” (priority 2006, published 2010).

What all share (type): in vivo
Series [1] concerns Frankliniella occidentalis. Briefly: Greenhouse test on bell pepper against Western flower thrips. As to conditions: on 15 open flowers. The method, then: (§1) In a greenhouse of a size of 4000 m^2 run in accordance with an IPM program (no insecticide used), bell pepper plants of the cultivar “Requena” on perlite substrates are, about 11 weeks after transplanting, tested comparatively against Western flower thrips (Frankliniella occidentalis) using spiromesifen (240 SC) and the non-beneficial-species-sparing standard formetanate (50 SP) at the stated application rates. Two applications are carried out at an interval of 14 days. Application is by knapsack sprayer. A water application rate of 1000 l/ha is applied.
(§2) Evaluations are carried out 7, 14, 21 and 28 days after the first treatment. As a natural enemy (beneficial species) of the Western flower thrips, use is made of Orius laevigalus from the family of the pirate bugs (Anthochoridae). Evaluation is carried out by counting the number of Western flower thrips on 15 open flowers. The number of beneficial species is also scored.

Series [2] relates to Orius laevigalus. Briefly: Greenhouse test on bell pepper: number of beneficial species scored. On the procedure:
as §1, §2

Series [3] concerns Bemisia tabaci. Nature of the series: Bemisia tabaci test (cotton leaves, spray, mirid bugs added). The note with it: 0.16 ppm, infested cotton leaves sprayed. On the procedure:
Solvent: 7 parts by weight of dimethylformamide Emulsifier: 2 parts by weight of alkylaryl polyglycol ether
To produce a suitable preparation of active compound, 1 part by weight of active compound is mixed with the stated amounts of solvent and emulsifier, and the concentrate is diluted with emulsifier-containing water to the desired concentration.
Cotton leaves (Gossypium hirsutum) infested by the whitefly (Bemisia tabacii) are treated by being sprayed with the preparation of active compound at the desired concentration.
After the desired period of time, a defined amount of mirid bugs (Macrolophus caliginosus) is added.
After the desired period of time, the kill of the pest in % is determined. 100% means that all whiteflies have been killed; 0% means that none of the whiteflies have been killed. The determined kill rates are entered into Colby's formula.

Where [4] appears, read: application 0.2 % (50 SP), 7 d after first treatment.
Where [5] appears, read: application 0.2 % (50 SP), 14 d after first treatment.
Setting [6] is: application 0.2 % (50 SP), 21 d after first treatment.
Setting [7] is: application 0.2 % (50 SP), 28 d after first treatment.
[8] abbreviates: application 0.06 % (240 SC), 14 d after first treatment.
Setting [9] is: application 0.06 % (240 SC), 21 d after first treatment.
Where [10] appears, read: application 0.06 % (240 SC), 28 d after first treatment.

In the case of `CNC(=O)Oc1cccc(N=CN(C)C)c1` [Formetanate, reference compound], the “Number Frankliniella occidentalis larvae + adults” value worked out at 2 in series [1] (setting [4]), 3.5 in series [1] (setting [5]), 8 in series [1] (setting [6]) and 18.8 in series [1] (setting [7]). Further, the “Number Orius laevigalus larvae + adults” value turned out to be 0.3 in series [2] (setting [4]), 0 in series [2] (setting [5]), 0.3 in series [2] (setting [6]) and 0.3 in series [2] (setting [7]).
On to `Cc1cc(C)c(C2=C(OC(=O)CC(C)(C)C)C3(CCCC3)OC2=O)c(C)c1` [Spiromesifen (Ex. I-b-1), Spiromesifen], for which the “Kill in % after 14 d” value in series [3] is given as 1.25%. For the same compound, the “Number Frankliniella occidentalis larvae + adults” value amounted to 16.7 in series [1] (application 0.06 % (240 SC), 7 d after first treatment, bell pepper greenhouse); 13.7 in series [1] (setting [8]); 9 in series [1] (setting [9]); 13.7 in series [1] (setting [10]). Moreover, the “Number Orius laevigalus larvae + adults” value amounted to 2.5 in series [2] (application 0.06 % (240 SC), 7 d after first treatment); 3.7 in series [2] (setting [8]); 7.3 in series [2] (setting [9]); 9 in series [2] (setting [10]).
